Assay results reported in patent US11427548B2 (Arvinas Operations, Inc., priority 2015, dated 2022).
Like-named read-outs stand apart in the source and are kept apart here.

Target: T1, Androgen Receptor (Homo sapiens, UniProt P10275)
T1 construct: endogenous in cells; host or cells: VCaP cells
T1 sequence (P10275 1-920): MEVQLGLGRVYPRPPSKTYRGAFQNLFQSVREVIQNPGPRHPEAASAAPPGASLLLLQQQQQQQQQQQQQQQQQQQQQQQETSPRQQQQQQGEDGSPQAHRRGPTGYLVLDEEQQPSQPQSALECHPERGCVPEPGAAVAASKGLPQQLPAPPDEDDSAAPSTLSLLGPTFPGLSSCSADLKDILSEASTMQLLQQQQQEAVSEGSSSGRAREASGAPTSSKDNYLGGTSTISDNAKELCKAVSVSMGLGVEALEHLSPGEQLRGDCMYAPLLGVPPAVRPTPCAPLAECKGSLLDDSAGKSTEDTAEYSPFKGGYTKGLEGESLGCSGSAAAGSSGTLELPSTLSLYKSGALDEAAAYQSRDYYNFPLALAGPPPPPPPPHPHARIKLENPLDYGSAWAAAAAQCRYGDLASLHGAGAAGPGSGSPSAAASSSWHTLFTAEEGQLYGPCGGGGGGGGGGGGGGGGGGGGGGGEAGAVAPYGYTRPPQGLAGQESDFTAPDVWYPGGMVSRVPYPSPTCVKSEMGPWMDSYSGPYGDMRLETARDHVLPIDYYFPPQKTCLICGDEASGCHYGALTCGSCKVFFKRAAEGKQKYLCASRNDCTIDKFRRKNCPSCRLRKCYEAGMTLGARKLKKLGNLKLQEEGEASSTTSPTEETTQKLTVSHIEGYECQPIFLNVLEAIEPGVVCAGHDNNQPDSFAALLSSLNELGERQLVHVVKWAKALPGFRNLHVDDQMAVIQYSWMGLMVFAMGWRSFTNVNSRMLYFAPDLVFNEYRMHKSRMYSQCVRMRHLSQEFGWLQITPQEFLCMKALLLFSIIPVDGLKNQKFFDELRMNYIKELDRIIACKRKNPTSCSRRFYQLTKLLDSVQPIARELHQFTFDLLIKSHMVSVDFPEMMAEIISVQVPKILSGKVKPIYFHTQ
Test: Androgen Receptor ELISA assay (PathScan AR ELISA) in VCaP cells: AR degradation, Dmax and DC50
Type: cell-based
How it was run: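 VCaP cells in phenol red-free RPMI with 5% charcoal-stripped FBS were grown at least 3 days, then given compound as 7 half-log doses in 0.1% DMSO with 0.1 nM R1881 for 24 h. Lysates went into a sandwich AR ELISA with TMB read at 450 nm.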

[1] = VCaP cells; Table 35; read-out: VCaP DC50
[2] = VCaP, VCaP cells; Table 35; read-out: VCaP Dmax (%)
[3] = VCaP cells; Table 36; read-out: VCaP DC50

| SMILES | DC50 [1] [nM] | Dmax [2] [%] | DC50 [3] [nM] | Dmax (VCaP, read-out: VCaP Dmax (%)) [%] | also measured |
| --- | --- | --- | --- | --- | --- |
| Cn1nccc1-c1ccc(CNC(=O)[C@@H]2C[C@@H](O)CN2C(=O)[C@@H](NC(=O)COCCCOCCCCOc2ccc(N3C(=S)N(c4ccc(C#N)c(Cl)c4)C(=O)C3(C)C)cc2F)C(C)(C)C)cc1 [Example 50, (2S,4R)-1-[(2S)-2-{2-[3-(4-{4-[3-(3-chloro-4-cyanophenyl)-5,5-dimethyl-4-oxo-2-sulfanylideneimidazolidin-1-yl]-2-fluorophenoxy}butoxy)propoxy]acetamido}-3,3-dimethylbutanoyl]-4-hydroxy-N-{[4-(1-methyl-1H-pyrazol-5-yl)phenyl]methyl}pyrrolidine-2-carboxamide] | – | – | – | > 71 | DC50 (read-out: VCaP DC50; concentration that caused 50% Androgen Receptor degradation, VCaP cells): < 50 nM |
| CN(C)c1ccc(CNC(=O)[C@@H]2C[C@@H](O)CN2C(=O)[C@@H](NC(=O)COCCCOCCCCCOc2ccc(N3C(=S)N(c4ccc(C#N)c(C(F)(F)F)c4)C(=O)C3(C)C)cc2)C(C)(C)C)cn1 [Example 451] | – | – | – | < 25 | DC50 (read-out: VCaP DC50; VCaP cells; Table 35): > 501 nM |
| Cc1ncsc1-c1ccc(CNC(=O)[C@@H]2C[C@@H](O)CN2C(=O)[C@@H](NC(=O)COc2ccc(OCC#Cc3ccc(N4C(=S)N(c5ccc(C#N)c(C(F)(F)F)c5)C(=O)C4(C)C)cc3)cc2)C(C)(C)C)cc1 [Example 413] | – | – | – | 51 to 70 | DC50 (read-out: VCaP DC50; VCaP cells; Table 34): < 50 nM |
| Cc1ncsc1-c1ccc([C@H](CO)NC(=O)[C@@H]2C[C@@H](O)CN2C(=O)[C@@H](NC(=O)CN2C3CCC2CN(CCCCc2ccc(C(=O)N[C@H]4C(C)(C)[C@H](Oc5ccc(C#N)c(Cl)c5)C4(C)C)cc2)C3)C(C)(C)C)cc1 [Example 836, (2S,4R)-1-((2S)-2-(2-(3-(4-(4-(((1r,3r)-3-(3-chloro-4-cyanophenoxy)-2,2,4,4-tetramethylcyclobutyl)carbamoyl)phenyl)butyl)-3,8-diazabicyclo[3.2.1]octan-8-yl)acetamido)-3,3-dimethylbutanoyl)-4-hydroxy-N-((R)-2-hydroxy-1-(4-(4-methylthiazol-5-yl)phenyl)ethyl) pyrrolidine-2-carboxamide] | – | – | – | > 71 | DC50 (read-out: VCaP DC50; VCaP cells; Table 36): < 50 nM |
| Cc1ncsc1-c1ccc(CNC(=O)[C@@H]2C[C@@H](O)CN2C(=O)[C@@H](NC(=O)CNC(=O)CCCOc2ccc(C(=O)N[C@H]3C(C)(C)[C@H](Oc4ccc(C#N)c(Cl)c4)C3(C)C)cc2)C(C)(C)C)cc1 [Example 393] | – | – | – | – | DC50 (VCaP cells; Table 34; read-out: VCaP DC50): < 50 nM; Dmax (VCaP, VCaP cells; Table 34; read-out: VCaP Dmax (%)): 51 to 70% |
| Cn1cncc1-c1ccc(CNC(=O)[C@@H]2C[C@@H](O)CN2C(=O)[C@@H](NC(=O)COCCCCOc2ccc(-c3ccc(N4C(=S)N(c5ccc(C#N)c(C(F)(F)F)c5)C(=O)C4(C)C)cc3)cc2)C(C)(C)C)cc1 [Example 104, (2S,4R)-1-[(2S)-2-(2-{4-[4-(4-{3-[4-cyano-3-(trifluoromethyl)phenyl]-5,5-dimethyl-4-oxo-2-sulfanylideneimidazolidin-1-yl}phenyl)phenoxy]butoxy}acetamido)-3,3-dimethylbutanoyl]-4-hydroxy-N-{[4-(1-methyl-1H-imidazol-5-yl)phenyl]methyl}pyrrolidine-2-carboxamide] | – | – | – | > 71 | DC50 (read-out: VCaP DC50; concentration that caused 50% Androgen Receptor degradation, VCaP cells (Table 32)): < 50 nM |
| CO[C@@H]1C[C@@H](C(=O)N[C@@H](C)c2ccc(-c3scnc3C)cc2)N(C(=O)[C@@H](NC(=O)CN2CCN(CCCc3ccc(C(=O)N[C@H]4C(C)(C)[C@H](Oc5ccc(C#N)c(C(F)(F)F)c5)C4(C)C)cc3)CC2)C(C)(C)C)C1 [Example 708, (2S,4R)-1-((S)-2-(2-(4-(3-(4-(((1r,3r)-3-(4-cyano-3-(trifluoromethyl)phenoxy)-2,2,4,4-tetramethylcyclobutyl)carbamoyl)phenyl)propyl)piperazin-1-yl)acetamido)-3,3-dimethylbutanoyl)-4-methoxy-N-((S)-1-(4-(4-methylthiazol-5-yl)phenyl)ethyl)pyrrolidine-2-carboxamide] | – | – | > 501 | < 25 | – |
| Cc1ncsc1-c1ccc([C@H](C)NC(=O)[C@@H]2C[C@@H](O)CN2C(=O)[C@@H](NC(=O)CN2CCN(CC3CCN(c4ccc(C(=O)N[C@H]5C(C)(C)[C@H](Oc6ccc(C#N)c(Cl)c6)C5(C)C)cn4)CC3)CC2)C(C)(C)C)cc1 [Example 853, N-((1r,3r)-3-(3-chloro-4-cyanophenoxy)-2,2,4,4-tetramethylcyclobutyl)-6-(4-((4-(2-(((S)-1-((2S,4R)-4-hydroxy-2-(((S)-1-(4-(4-methylthiazol-5-yl)phenyl)ethyl)carbamoyl)pyrrolidin-1-yl)-3,3-dimethyl-1-oxobutan-2-yl)amino)-2-oxoethyl)piperazin-1-yl)methyl)piperidin-1-yl) nicotinamide] | – | – | < 50 | > 71 | – |

Now from value to compound, other results behind:

| DC50 [1] [nM] | Dmax [2] [%] | DC50 [3] [nM] | SMILES | Dmax (VCaP, read-out: VCaP Dmax (%)) [%] | also measured |
| --- | --- | --- | --- | --- | --- |
| < 50 | > 71 | – | Cc1ncsc1-c1ccc(CNC(=O)[C@@H]2C[C@@H](O)CN2C(=O)[C@@H](NC(=O)CS(=O)(=O)CCOc2ccc(-c3ccc(C(=O)N[C@H]4C(C)(C)[C@H](Oc5ccc(C#N)c(Cl)c5)C4(C)C)cc3)cc2)C(C)(C)C)cc1 [Example 472] | – | – |
| < 50 | > 71 | – | C[C@H](NC(=O)[C@@H]1C[C@@H](O)CN1C(=O)[C@@H](NC(=O)COCCCCOc1ccc(C(=O)N[C@H]2C(C)(C)[C@H](Oc3ccc(C#N)c(Cl)c3)C2(C)C)cc1)C(C)(C)C)c1ccc(-c2ncon2)cc1 [Example 569] | – | – |
| > 501 | < 25 | – | Cc1ncsc1-c1ccc([C@H](C)NC(=O)[C@@H]2C[C@@H](O)CN2C(=O)[C@@H](NC(=O)CNC(=O)c2ccc(Oc3ccc(C(=O)N[C@H]4C(C)(C)[C@H](Oc5ccc(C#N)c(Cl)c5)C4(C)C)cn3)cc2)C(C)(C)C)nc1 [Example 432] | – | – |
| – | – | > 501 | Cc1ncsc1-c1ccc([C@H](C)NC(=O)[C@@H]2CC(O)CN2C(=O)[C@H](C(C)C)n2nccc2OCCCCCNc2ccc(C(=O)N[C@H]3C(C)(C)[C@H](Oc4ccc(C#N)c(Cl)c4)C3(C)C)cc2)cc1 (stereo partly drawn) [Example 625, (2S,4R)-1-((R)-2-(5-((5-((4-(((1r,3r)-3-(3-chloro-4-cyanophenoxy)-2,2,4,4-tetramehtylcyclobutyl)carbamoyl)phenyl)amino)pentyl)oxy)-1H-pyrazol-1-yl)-3-methylbutanoyl)-4-hydroxy-N-((S)-1-(4-(4-methylthiazol-5-yl)phenyl)ethyl)pyrrolidine-2-carboxamide] | – | VCaP Dmax (%) (VCaP cells; Table 36): ++ (26% ≤ Dmax ≤ 50%) |
| < 50 | > 71 | – | Cc1ncsc1-c1ccc(CNC(=O)[C@@H]2C[C@@H](O)CN2C(=O)[C@@H](NC(=O)COCCN2CCN(c3ccc(C(=O)N[C@H]4C(C)(C)[C@H](Oc5ccc(C#N)c(Cl)c5)C4(C)C)cc3)CC2)C(C)(C)C)cc1 [Example 544] | – | – |
| – | – | < 50 | Cc1ncsc1-c1ccc(C(C)NC(=O)C2CC(O)CN2C(=O)C(NC(=O)CN2CCOCCOCCN(c3ccc(C(=O)NC4C(C)(C)C(Oc5ccc(C#N)c(Cl)c5)C4(C)C)cc3)CCOCCOCC2)C(C)(C)C)cc1 [Example 694, (2S,4R)-1-((S)-2-(2-(16-(4-(((1r,3r)-3-(3-chloro-4-cyanophenoxy)-2,2,4,4-tetramethylcyclobutyl)carbamoyl)phenyl)-1,4,10,13-tetraoxa-7,16-diazacyclooctadecan-7-yl)acetamido)-3,3-dimethylbutanoyl)-4-hydroxy-N-((S)-1-(4-(4-methylthiazol-5-yl)phenyl)ethyl)pyrrolidine-2-carboxamide] | – | Dmax (VCaP, read-out: VCaP Dmax (%), VCaP cells; Table 36): 51 to 70% |
| > 501 | 51 to 70 | – | CC(C)(C)[C@H](NC(=O)COCCOc1ccc(-c2ccc(C(=O)N[C@H]3C(C)(C)[C@H](Oc4ccc(C#N)c(Cl)c4)C3(C)C)cc2)cc1)C(=O)N1C[C@H](O)C[C@H]1C(=O)NCc1ccc(Cl)cc1 [Example 573] | – | – |
| – | – | < 50 | CC(C)(C)[C@H](NC(=O)COCCN1CCN(c2ccc(C(=O)N[C@H]3C(C)(C)[C@H](Oc4ccc(C#N)c(Cl)c4)C3(C)C)cn2)CC1)C(=O)N1C[C@H](O)C[C@H]1C(=O)NCc1ccc(C#N)cc1 [Example 736, N-((1r,3r)-3-(3-chloro-4-cyanophenoxy)-2,2,4,4-tetramethylcyclobutyl)-6-(4-(2-(2-(((S)-1-((2S,4R)-2-((4-cyanobenzyl)carbamoyl)-4-hydroxypyrrolidin-1-yl)-3,3-dimethyl-1-oxobutan-2-yl)amino)-2-oxoethoxy)ethyl)pipera-zin-1-yl)nicotinamide] | – | Dmax (VCaP, VCaP cells; Table 36; read-out: VCaP Dmax (%)): 51 to 70% |
